Data from PubChem BioAssay AID1918949 (Molecular Pharmacology Branch, DTP, NCI, 2023).

Test system: K24384-001-R-PDC complex spheroid viability
Assay: Anticancer human tumor K24384-001-R-PDC patient-derived pancreatic adenocarcinoma cell line growth inhibition
Settings: for IC50: curve of first compound; for viability, T/C: stronger effect = lower value
Excerpt: Multicellular complex tumor spheroid response to LSD1 Inhibitor Iadademstat in combination with a variety of drugs and investigational agents in selected tumor cell lines
The current study was undertaken to assess response to LSD1 inhibitors in combination with standard-of-care drugs and investigational agents in solid tumor complex spheroid models as well as in the K-562 leukemia. Complex spheroids include a stromal component modeled by human endothelial cells (HUVEC) and fibroblasts modeled by human mesenchymal stem cells (MSCs). The concentration ranges selected for each drug and investigational agent were based upon clinically achievable concentrations if the clinical Cmax of the agent was known.
Compounds. The drugs and investigational agents used in this study are listed on Table 1. All of the agents used, including staurosporine (NSC755774) and gemcitabine (NSC613327), were obtained from the Developmental Therapeutics Program, NCI. FDA-approved anticancer drugs are available from the NCI at http://dtp.nci.nih.gov/branches/dscb/oncology_drugset_explanation.html. Drugs and investigational agents were >95% pure by proton nuclear magnetic resonance (NMR) and liquid chromatography/mass spectrometry (LC/MS). Stock solutions were prepared at 400x in DMSO, stored at -70 degrees C, and diluted in fresh medium prior to their use. The final concentration of DMSO in cell culture wells never exceeded 0.25% (v/v). The FDA-approved anticancer drug set is available from the Developmental Therapeutics Program at https://dtp.cancer.gov/organization/dscb/obtaining/available_plates.htm. All drugs and investigational agents were tested over a range starting from a high concentration at or near the clinical Cmax and decreasing in half-log increments. If the clinical Cmax for an agent had not been determined, the highest concentration tested was 10 microM.
Cell Lines. The patient-derived cancer cell (PDC) lines: 292921-168-R-J2-PDC, K24384-001-R-PDC, and 521955-158-R2-J5-PDC pancreatic carcinomas, 556581-035-R-J1 ovarian carcinoma, 324938-238-R-J1-PDC, 855422-203-R-J1-PDC and 883617-216-R-J1-PDC urothelial bladder carcinomas, 743489-274-T-PDC renal cell carcinoma, 138582-R-J1 Merkel cell tumor, K60290-347-R-J1 and K57222-313-R-J1-PDC glioblastomas, 653999-131-R-J2-PDC, LG0703-F948-PDC, and 349418-098-R-PDC non-small cell lung carcinomas, 885512-296-R-J2-PDC, 171881-019-R-J1-PDC breast carcinomas and 186277-243-T-J2-PDC and 233499-124-R-J2-PDC colon carcinomas were obtained from the NCI Patient-Derived Models Repository (PDMR, https://pdmr.cancer.gov). The established cell lines NCI/ADR-RES (RRID:CVCL_14520 and OVCAR-5 (RRID:CVCL_1628) ovarian carcinomas, 786-O (RRID:CVCL_1051) and A498 (RRID:CVCL_A498) renal cell carcinoma, NCI-H211 (ATCC, cat. CRL-5824; RRID:CVCL_1529), NCI-H196 (ATCC, cat. CRL-5823, RRID:CVCL_1509), SW 1271 (ATCC, cat. CRL-2177, RRID:CVCL_1716) and NCI-H1876 (ATCC, cat. CRL-5902, RRID:CVCL_1503) small cell lung carcinomas, MDA-MB-231 (RRID:CVCL_0062) and MDA-MB-468 (RRID:CVCL_0419)breast carcinomas (10-12). Pooled donor human umbilical vein endothelial cells (HUVEC, Lonza, cat. CC-2519) and human mesenchymal stem cells (hMSC, Lonza, cat. PT-2501) were purchased from Lonza (Walkersville, MD).
Cell Culture. All cells were maintained in an incubator at 37 degrees C and 5% CO2 with 95% humidity. The PDC lines were cultured according to standard operating procedures established by the NCI PDMR (https://pdmr.cancer.gov). Briefly all PDCs were thawed and cultured in Matrigel-coated flasks prepared with a working solution of 1X Ham's F-12 nutrient mix, without supplementation (Invitrogen, Waltham, MA, cat. 11765054), 100 U/mL penicillin-streptomycin (Invitrogen, cat. 15140122), and 2.5% Matrigel (Corning Inc., Corning, NY, cat. 354248) for the first three passages. […]
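Also: spheroids exposed to agents for seven days before luminescence viability reading.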
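For viability, T/C in this document: 100% = DMSO vehicle control viability.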

## Nc1ncn(C2CC(O)C(CO)O2)c(=O)n1 (stereo not given) + NC1CC1c1ccc(-c2cccc(O)c2)cc1
Second compound 0.1 µM
  IC50: > 1000 nM
Second compound 0.316 µM
  IC50: > 1000 nM
Second compound 1 µM
  IC50: > 1000 nM
Second compound 3.16 µM
  IC50: > 1000 nM
Second compound 10 µM
  IC50: > 1000 nM
Second compound 0.1 µM, first compound 0.00316 µM
  viability, T/C: 89.9%
Second compound 0.1 µM, first compound 0.01 µM
  viability, T/C: 86.7%
Second compound 0.1 µM, first compound 0.0316 µM
  viability, T/C: 97.5%
Second compound 0.1 µM, first compound 0.1 µM
  viability, T/C: 80.2%
Second compound 0.1 µM, first compound 0.316 µM
  viability, T/C: 70.4%
Second compound 0.1 µM, first compound 1 µM
  viability, T/C: 79%
Second compound 0.316 µM, first compound 0.00316 µM
  viability, T/C: 78.3%
Second compound 0.316 µM, first compound 0.01 µM
  viability, T/C: 98.4%
Second compound 0.316 µM, first compound 0.0316 µM
  viability, T/C: 86.5%
Second compound 0.316 µM, first compound 0.1 µM
  viability, T/C: 85.3%
Second compound 0.316 µM, first compound 0.316 µM
  viability, T/C: 78.6%
Second compound 0.316 µM, first compound 1 µM
  viability, T/C: 68.9%
Second compound 1 µM, first compound 0.00316 µM
  viability, T/C: 97.8%
Second compound 1 µM, first compound 0.01 µM
  viability, T/C: 91.3%
Second compound 1 µM, first compound 0.0316 µM
  viability, T/C: 84%
Second compound 1 µM, first compound 0.1 µM
  viability, T/C: 67.9%
Second compound 1 µM, first compound 0.316 µM
  viability, T/C: 72.5%
Second compound 1 µM, first compound 1 µM
  viability, T/C: 70.6%
Second compound 3.16 µM, first compound 0.00316 µM
  viability, T/C: 88.4%
Second compound 3.16 µM, first compound 0.01 µM
  viability, T/C: 88.4%
Second compound 3.16 µM, first compound 0.0316 µM
  viability, T/C: 87.8%
Second compound 3.16 µM, first compound 0.1 µM
  viability, T/C: 79.2%
Second compound 3.16 µM, first compound 0.316 µM
  viability, T/C: 80.1%
Second compound 3.16 µM, first compound 1 µM
  viability, T/C: 82.6%
Second compound 10 µM, first compound 0.00316 µM
  viability, T/C: 101%
Second compound 10 µM, first compound 0.01 µM
  viability, T/C: 97.2%
Second compound 10 µM, first compound 0.0316 µM
  viability, T/C: 89.4%
Second compound 10 µM, first compound 0.1 µM
  viability, T/C: 90.3%
Second compound 10 µM, first compound 0.316 µM
  viability, T/C: 77.9%
Second compound 10 µM, first compound 1 µM
  viability, T/C: 87.7%

## COc1cc(C2c3cc4c(cc3C(OC3OC5COC(C)OC5C(O)C3O)C3COC(=O)C23)OCO4)cc(OC)c1O (stereo not given) + NC1CC1c1ccc(-c2cccc(O)c2)cc1
Second compound 0.1 µM
  IC50: 263 nM
Second compound 0.316 µM
  IC50: 199 nM
Second compound 1 µM
  IC50: 238 nM
Second compound 3.16 µM
  IC50: 275 nM
Second compound 10 µM
  IC50: 317 nM
Second compound 0.1 µM, first compound 0.00949 µM
  viability, T/C: 96.9%
Second compound 0.1 µM, first compound 0.03 µM
  viability, T/C: 76.4%
Second compound 0.1 µM, first compound 0.0949 µM
  viability, T/C: 62.4%
Second compound 0.1 µM, first compound 0.3 µM
  viability, T/C: 47.8%
Second compound 0.1 µM, first compound 0.949 µM
  viability, T/C: 40.5%
Second compound 0.1 µM, first compound 3 µM
  viability, T/C: 38.2%
Second compound 0.316 µM, first compound 0.00949 µM
  viability, T/C: 83.1%
Second compound 0.316 µM, first compound 0.03 µM
  viability, T/C: 88.7%
Second compound 0.316 µM, first compound 0.0949 µM
  viability, T/C: 63.4%
Second compound 0.316 µM, first compound 0.3 µM
  viability, T/C: 44.2%
Second compound 0.316 µM, first compound 0.949 µM
  viability, T/C: 39.9%
Second compound 0.316 µM, first compound 3 µM
  viability, T/C: 34.5%
Second compound 1 µM, first compound 0.00949 µM
  viability, T/C: 74.7%
Second compound 1 µM, first compound 0.03 µM
  viability, T/C: 77.5%
Second compound 1 µM, first compound 0.0949 µM
  viability, T/C: 60.5%
Second compound 1 µM, first compound 0.3 µM
  viability, T/C: 45.6%
Second compound 1 µM, first compound 0.949 µM
  viability, T/C: 40.8%
Second compound 1 µM, first compound 3 µM
  viability, T/C: 30.2%
Second compound 3.16 µM, first compound 0.00949 µM
  viability, T/C: 73.5%
Second compound 3.16 µM, first compound 0.03 µM
  viability, T/C: 82.1%
Second compound 3.16 µM, first compound 0.0949 µM
  viability, T/C: 66%
Second compound 3.16 µM, first compound 0.3 µM
  viability, T/C: 47.9%
Second compound 3.16 µM, first compound 0.949 µM
  viability, T/C: 41.5%
Second compound 3.16 µM, first compound 3 µM
  viability, T/C: 32.8%
Second compound 10 µM, first compound 0.00949 µM
  viability, T/C: 90.7%
Second compound 10 µM, first compound 0.03 µM
  viability, T/C: 84.9%
Second compound 10 µM, first compound 0.0949 µM
  viability, T/C: 62.8%
Second compound 10 µM, first compound 0.3 µM
  viability, T/C: 53.6%
Second compound 10 µM, first compound 0.949 µM
  viability, T/C: 41.3%
Second compound 10 µM, first compound 3 µM
  viability, T/C: 42.8%
